Results from PMC11035696, “Prospective de novo drug design with deep interactome learning” (Nature Communications, 2024).
Where “and” joins values, the source holds several entries; their conditions need not be identical. Equal entries are not always repeated.

Experiments:
liver X receptor (LXR)α = target: T1, liver X receptor (LXR)α (Homo sapiens, UniProt Q13133); test: Nuclear receptor selectivity profiling, hybrid reporter gene assay, LXRα; type: cell-based
T1 construct: LXRα (pFA-CMV-hLXRα-LBD[104], 1 μM TO901317); expressed in transfected cells; host or cells: HEK293T
T1 sequence (Q13133 209-447 limits assumed): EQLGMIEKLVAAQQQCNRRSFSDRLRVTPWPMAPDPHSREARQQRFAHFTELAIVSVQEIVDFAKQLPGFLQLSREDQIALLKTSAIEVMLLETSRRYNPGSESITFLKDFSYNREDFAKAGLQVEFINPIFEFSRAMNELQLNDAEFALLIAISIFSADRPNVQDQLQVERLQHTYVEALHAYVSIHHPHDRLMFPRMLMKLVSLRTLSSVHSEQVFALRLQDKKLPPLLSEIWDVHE
Procedure: PPAR activation was determined in uniform Gal4-hybrid reporter gene assays for the PPARα, PPARγ and PPARδ isoforms in HEK293T cells (German Collection of Microorganisms and Cell Culture GmbH, DSMZ) which were transiently transfected with pFR-Luc (Stratagene, La Jolla, CA, USA; reporter) and pRL-SV40 (Promega, Madison, WI, USA; internal control) and one pFA-CMV-hPPAR-LBD[97] clone, coding for the hinge region and ligand binding domain of the canonical isoform of human PPARα, PPARγ, PPARδ or respectively. Cells were cultured in Dulbecco’s modified Eagle’s medium (DMEM), high glucose supplemented with 10% fetal calf serum (FCS), sodium pyruvate (1 mM), penicillin (100 U ⋅ ml^-1), and streptomycin (100 μg ⋅ ml^-1) at 37 °C and 5% CO2 and seeded in 96-well plates (3 × 10^4 cells per well). After 24 h, medium was changed to Opti-MEM without supplements and cells were transiently transfected using Lipofectamine LTX reagent (Invitrogen) according to the manufacturer’s protocol. Five hours after transfection, cells were incubated with the test compounds in Opti-MEM supplemented with penicillin (100 U ⋅ ml^-1), streptomycin (100 μg ⋅ ml^-1) and 0.1% DMSO for 16 h before luciferase activity was measured using the Dual-Glo Luciferase Assay System (Promega) according to the manufacturer’s protocol on a Tecan Spark luminometer (Tecan Deutschland GmbH, Germany). Firefly luminescence was divided by Renilla luminescence and multiplied by 1000 resulting in relative light units (RLU) to normalize for transfection efficiency and cell growth. Fold activation was obtained by dividing the mean RLU of a test compound by the mean RLU of the untreated control. All samples were tested in at least three biologically independent experiments in duplicates. For dose-response curve fitting and calculation of EC50 values, the equation “[Agonist] versus response (variable slope—four parameters)” was used in GraphPad Prism (version 7.00, GraphPad Software, La Jolla, CA, USA) with fold activation data. The reference agonizts GW7647 (PPARα)[98],[99], pioglitazone (PPARγ)[100],[101] and L165,041 (PPARδ)[102],[103] were used to validate the assays and to monitor assay performance. Nuclear receptor selectivity profiling was performed with corresponding pFA-CMV-hNR-LBD clones and suitable reference agonizts on RARα (pFA-CMV-hRARα-LBD[104], 1 μM tretinoin), LXRα (pFA-CMV-hLXRα-LBD[104], 1 μM TO901317) and RXRα (pFA-CMV-h RXRα-LBD[105], 1 μM Bexarotene).

human PPARδ = target: T2, human PPARδ (Homo sapiens, UniProt Q03181); test: Gal4-hybrid reporter gene assay, PPARδ activation; type: cell-based
T2 construct: expressed in transfected cells; host or cells: HEK293T
T2 sequence (Q03181 211-439 limits assumed): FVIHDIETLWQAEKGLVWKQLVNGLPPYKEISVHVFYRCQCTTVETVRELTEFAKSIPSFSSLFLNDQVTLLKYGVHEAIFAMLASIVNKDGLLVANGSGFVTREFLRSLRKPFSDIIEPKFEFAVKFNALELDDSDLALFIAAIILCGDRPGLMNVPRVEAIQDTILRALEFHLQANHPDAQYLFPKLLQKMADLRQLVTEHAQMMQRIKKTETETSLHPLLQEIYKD
Procedure: Compounds 1–3 were characterized in a hybrid reporter gene assay for their agoniztic effect on human nuclear receptors PPARα/γ/δ, RXRα, FXRα, RARα in HEK293T cells. Compound 1 was tested in an isothermal titration calorimetry (ITC) assay to measure direct binding affinity to the ligand-binding domain of PPARγ. ADME properties were measured in standardized assays at Roche.
PPAR activation was determined in uniform Gal4-hybrid reporter gene assays for the PPARα, PPARγ and PPARδ isoforms in HEK293T cells (German Collection of Microorganisms and Cell Culture GmbH, DSMZ) which were transiently transfected with pFR-Luc (Stratagene, La Jolla, CA, USA; reporter) and pRL-SV40 (Promega, Madison, WI, USA; internal control) and one pFA-CMV-hPPAR-LBD[97] clone, coding for the hinge region and ligand binding domain of the canonical isoform of human PPARα, PPARγ, PPARδ or respectively. Cells were cultured in Dulbecco’s modified Eagle’s medium (DMEM), high glucose supplemented with 10% fetal calf serum (FCS), sodium pyruvate (1 mM), penicillin (100 U ⋅ ml^-1), and streptomycin (100 μg ⋅ ml^-1) at 37 °C and 5% CO2 and seeded in 96-well plates (3 × 10^4 cells per well). After 24 h, medium was changed to Opti-MEM without supplements and cells were transiently transfected using Lipofectamine LTX reagent (Invitrogen) according to the manufacturer’s protocol. Five hours after transfection, cells were incubated with the test compounds in Opti-MEM supplemented with penicillin (100 U ⋅ ml^-1), streptomycin (100 μg ⋅ ml^-1) and 0.1% DMSO for 16 h before luciferase activity was measured using the Dual-Glo Luciferase Assay System (Promega) according to the manufacturer’s protocol on a Tecan Spark luminometer (Tecan Deutschland GmbH, Germany). Firefly luminescence was divided by Renilla luminescence and multiplied by 1000 resulting in relative light units (RLU) to normalize for transfection efficiency and cell growth. Fold activation was obtained by dividing the mean RLU of a test compound by the mean RLU of the untreated control. […]

CDK2 = CDK2 (Homo sapiens, UniProt P24941); test: Safety off-target panel, enzymatic; type: biochemical; conditions: single point
From the text: (§1) Table S9-S12 list all targets, their species, inhibition (%) and assay type for the experiments conducted in the
(§2) off-targets. […] The numbers for mean
(§3) inhibition (%) represent single point measurements.
(§4) off-targets. […] The numbers for
(§5) mean inhibition (%) represent single point measurements.

GSK-3A = GSK-3A (Homo sapiens, UniProt P49840); test: Safety off-target panel, enzymatic; type: biochemical; conditions: single point
GSK-3A, sequence (P49840 whole entry): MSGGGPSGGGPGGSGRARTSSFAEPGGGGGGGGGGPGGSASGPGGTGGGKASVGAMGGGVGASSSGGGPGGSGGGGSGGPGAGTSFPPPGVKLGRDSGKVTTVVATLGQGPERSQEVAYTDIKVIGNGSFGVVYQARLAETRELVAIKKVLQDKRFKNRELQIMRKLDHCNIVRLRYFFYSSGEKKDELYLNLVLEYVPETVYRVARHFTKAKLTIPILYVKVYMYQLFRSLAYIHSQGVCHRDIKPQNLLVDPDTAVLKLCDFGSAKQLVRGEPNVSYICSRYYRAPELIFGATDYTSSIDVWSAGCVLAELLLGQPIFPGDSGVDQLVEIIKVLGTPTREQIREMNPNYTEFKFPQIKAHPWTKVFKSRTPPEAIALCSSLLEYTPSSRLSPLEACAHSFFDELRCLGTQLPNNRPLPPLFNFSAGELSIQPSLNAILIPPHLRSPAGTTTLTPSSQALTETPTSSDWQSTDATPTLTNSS
From the text: as §1, §2, §3, §4, §5

ZAP70 = ZAP70 (Homo sapiens, UniProt P43403); test: Safety off-target panel, enzymatic; type: biochemical; conditions: single point
From the text: as §1, §2, §3, §4, §5

PHOSPHODIESTERASE 4D2 = PHOSPHODIESTERASE 4D2 (Homo sapiens, UniProt Q08499); test: Safety off-target panel, enzymatic; type: biochemical; conditions: single point
UniProt Q08499, sequence (Q08499 303-809 limits assumed): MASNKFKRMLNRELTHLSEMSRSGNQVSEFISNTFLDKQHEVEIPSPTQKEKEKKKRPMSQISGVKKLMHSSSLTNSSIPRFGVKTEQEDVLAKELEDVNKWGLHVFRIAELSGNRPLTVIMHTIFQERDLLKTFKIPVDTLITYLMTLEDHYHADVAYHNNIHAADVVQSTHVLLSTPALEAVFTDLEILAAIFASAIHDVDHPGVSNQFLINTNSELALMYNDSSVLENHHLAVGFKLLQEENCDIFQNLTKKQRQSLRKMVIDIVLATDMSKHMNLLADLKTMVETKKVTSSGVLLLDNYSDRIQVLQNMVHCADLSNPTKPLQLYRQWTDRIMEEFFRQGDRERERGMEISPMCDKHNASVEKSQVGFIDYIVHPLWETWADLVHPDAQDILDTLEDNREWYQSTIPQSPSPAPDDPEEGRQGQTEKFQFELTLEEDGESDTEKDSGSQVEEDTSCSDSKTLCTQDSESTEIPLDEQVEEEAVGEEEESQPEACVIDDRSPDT
From the text: as §1, §2, §3, §4, §5

ABL1 = ABL1 (Homo sapiens, UniProt P00519); test: Safety off-target panel, enzymatic; type: biochemical; conditions: single point
From the text: as §1, §2, §3, §4, §5

[1] = target: ANGIOTENSIN CONVERTING ENZYME (Homo sapiens, UniProt P12821); test: Safety off-target panel, enzymatic; type: biochemical; conditions: single point
ANGIOTENSIN CONVERTING ENZYME, sequence (P12821 30-1306): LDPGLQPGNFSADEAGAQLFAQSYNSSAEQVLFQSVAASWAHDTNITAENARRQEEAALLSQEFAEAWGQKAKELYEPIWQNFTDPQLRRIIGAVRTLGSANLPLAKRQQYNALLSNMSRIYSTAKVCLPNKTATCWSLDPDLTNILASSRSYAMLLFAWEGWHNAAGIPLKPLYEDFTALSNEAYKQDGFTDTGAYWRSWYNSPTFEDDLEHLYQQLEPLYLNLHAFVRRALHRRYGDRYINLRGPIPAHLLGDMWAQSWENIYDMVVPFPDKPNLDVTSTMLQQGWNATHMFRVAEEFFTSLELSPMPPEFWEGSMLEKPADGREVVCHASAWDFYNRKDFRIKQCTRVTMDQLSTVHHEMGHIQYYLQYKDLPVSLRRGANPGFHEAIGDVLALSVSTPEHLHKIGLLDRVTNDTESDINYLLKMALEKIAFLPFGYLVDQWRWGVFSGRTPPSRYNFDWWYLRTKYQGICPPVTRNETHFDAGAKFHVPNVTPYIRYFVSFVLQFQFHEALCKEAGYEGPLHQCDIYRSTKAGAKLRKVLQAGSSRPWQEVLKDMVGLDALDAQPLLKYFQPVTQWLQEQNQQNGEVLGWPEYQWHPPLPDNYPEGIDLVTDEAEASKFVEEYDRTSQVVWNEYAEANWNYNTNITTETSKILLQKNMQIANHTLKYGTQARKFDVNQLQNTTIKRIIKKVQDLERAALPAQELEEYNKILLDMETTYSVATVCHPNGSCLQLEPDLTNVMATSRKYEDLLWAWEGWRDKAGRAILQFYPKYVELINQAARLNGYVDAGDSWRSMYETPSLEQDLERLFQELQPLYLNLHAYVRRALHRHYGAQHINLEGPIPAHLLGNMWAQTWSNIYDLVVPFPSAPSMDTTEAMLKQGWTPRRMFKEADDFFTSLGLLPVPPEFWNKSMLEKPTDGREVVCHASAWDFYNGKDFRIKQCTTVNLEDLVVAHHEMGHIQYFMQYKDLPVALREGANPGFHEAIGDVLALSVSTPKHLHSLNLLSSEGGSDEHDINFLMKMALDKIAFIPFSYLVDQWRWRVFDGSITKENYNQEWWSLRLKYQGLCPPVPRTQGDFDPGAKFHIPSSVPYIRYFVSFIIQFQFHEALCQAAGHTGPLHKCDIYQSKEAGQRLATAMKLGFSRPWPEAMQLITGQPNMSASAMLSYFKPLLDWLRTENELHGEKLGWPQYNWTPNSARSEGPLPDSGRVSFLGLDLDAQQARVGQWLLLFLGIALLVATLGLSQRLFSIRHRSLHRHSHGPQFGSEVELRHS
From the text: as §1, §2, §3, §4, §5

MONOAMINE OXIDASE-A = MONOAMINE OXIDASE-A (Homo sapiens, UniProt P21397); test: Safety off-target panel, enzymatic; type: biochemical; conditions: single point
MONOAMINE OXIDASE-A, sequence (P21397 whole entry): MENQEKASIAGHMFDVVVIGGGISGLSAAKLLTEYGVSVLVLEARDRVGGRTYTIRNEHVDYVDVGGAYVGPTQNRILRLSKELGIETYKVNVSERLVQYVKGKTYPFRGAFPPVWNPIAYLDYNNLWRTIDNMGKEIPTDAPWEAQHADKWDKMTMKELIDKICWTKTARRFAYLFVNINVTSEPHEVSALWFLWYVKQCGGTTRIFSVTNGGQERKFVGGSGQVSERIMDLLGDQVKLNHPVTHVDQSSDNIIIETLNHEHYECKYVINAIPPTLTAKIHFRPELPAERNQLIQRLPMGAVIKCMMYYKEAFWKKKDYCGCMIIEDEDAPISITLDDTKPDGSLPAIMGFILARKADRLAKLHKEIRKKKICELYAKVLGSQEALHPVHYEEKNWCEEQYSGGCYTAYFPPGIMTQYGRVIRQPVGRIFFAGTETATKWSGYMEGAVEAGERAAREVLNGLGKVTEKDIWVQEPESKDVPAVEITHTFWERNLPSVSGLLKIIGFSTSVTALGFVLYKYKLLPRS
From the text: as §1, §2, §3, §4, §5

HIV-1 PROTEASE = test: Safety off-target panel, enzymatic; type: biochemical; conditions: 10 µM, single point
From the text: as §1, §2, §3, §4, §5

CYCLO OXYGENASE 2 = CYCLO OXYGENASE 2 (Homo sapiens, UniProt P35354); test: Safety off-target panel, enzymatic; type: biochemical; conditions: single point
CYCLO OXYGENASE 2, sequence (P35354 18-604): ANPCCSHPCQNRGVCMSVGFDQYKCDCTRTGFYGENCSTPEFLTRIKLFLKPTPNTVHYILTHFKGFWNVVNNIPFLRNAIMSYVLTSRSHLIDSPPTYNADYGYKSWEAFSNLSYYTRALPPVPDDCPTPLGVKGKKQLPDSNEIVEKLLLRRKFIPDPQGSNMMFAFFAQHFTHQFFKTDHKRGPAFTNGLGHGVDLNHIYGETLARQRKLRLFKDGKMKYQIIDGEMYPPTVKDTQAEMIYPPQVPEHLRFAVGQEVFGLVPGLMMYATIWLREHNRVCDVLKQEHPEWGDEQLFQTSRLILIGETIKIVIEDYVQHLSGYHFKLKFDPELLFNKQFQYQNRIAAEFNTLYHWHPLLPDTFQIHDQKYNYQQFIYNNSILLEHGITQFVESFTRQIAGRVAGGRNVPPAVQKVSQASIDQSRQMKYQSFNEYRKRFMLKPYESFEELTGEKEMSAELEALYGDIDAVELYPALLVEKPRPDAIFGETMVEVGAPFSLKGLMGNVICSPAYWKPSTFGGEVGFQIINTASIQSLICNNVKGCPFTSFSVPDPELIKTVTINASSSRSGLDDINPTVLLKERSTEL
From the text: as §1, §2, §3, §4, §5

ACETYLCHOLINESTERASE = ACETYLCHOLINESTERASE (Homo sapiens, UniProt P22303); test: Safety off-target panel, enzymatic; type: biochemical; conditions: single point
UniProt P22303, sequence (P22303 32-614): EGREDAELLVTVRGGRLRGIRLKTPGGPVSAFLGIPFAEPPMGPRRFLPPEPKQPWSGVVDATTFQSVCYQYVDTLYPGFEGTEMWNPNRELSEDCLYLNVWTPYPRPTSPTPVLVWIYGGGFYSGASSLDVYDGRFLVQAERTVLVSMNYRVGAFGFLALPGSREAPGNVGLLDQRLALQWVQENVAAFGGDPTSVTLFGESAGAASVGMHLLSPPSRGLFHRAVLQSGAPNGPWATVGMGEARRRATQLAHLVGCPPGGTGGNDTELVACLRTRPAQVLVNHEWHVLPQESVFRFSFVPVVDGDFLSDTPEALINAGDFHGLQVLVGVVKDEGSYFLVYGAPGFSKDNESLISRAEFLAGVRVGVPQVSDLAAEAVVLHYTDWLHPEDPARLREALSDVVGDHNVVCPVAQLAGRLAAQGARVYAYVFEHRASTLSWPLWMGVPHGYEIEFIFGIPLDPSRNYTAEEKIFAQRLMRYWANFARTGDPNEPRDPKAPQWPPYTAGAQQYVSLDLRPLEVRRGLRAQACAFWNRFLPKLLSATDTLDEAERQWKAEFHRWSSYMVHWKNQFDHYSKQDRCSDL
From the text: as §1, §2, §3, §4, §5

GSK-3B = GSK-3B (Homo sapiens, UniProt P49841); test: Safety off-target panel, enzymatic; type: biochemical; conditions: single point
From the text: as §1, §2, §3, §4, §5

PHOSPHODIESTERASE 3B = PHOSPHODIESTERASE 3B (Homo sapiens, UniProt Q13370); test: Safety off-target panel, enzymatic; type: biochemical; conditions: single point
UniProt Q13370, sequence (Q13370 whole entry): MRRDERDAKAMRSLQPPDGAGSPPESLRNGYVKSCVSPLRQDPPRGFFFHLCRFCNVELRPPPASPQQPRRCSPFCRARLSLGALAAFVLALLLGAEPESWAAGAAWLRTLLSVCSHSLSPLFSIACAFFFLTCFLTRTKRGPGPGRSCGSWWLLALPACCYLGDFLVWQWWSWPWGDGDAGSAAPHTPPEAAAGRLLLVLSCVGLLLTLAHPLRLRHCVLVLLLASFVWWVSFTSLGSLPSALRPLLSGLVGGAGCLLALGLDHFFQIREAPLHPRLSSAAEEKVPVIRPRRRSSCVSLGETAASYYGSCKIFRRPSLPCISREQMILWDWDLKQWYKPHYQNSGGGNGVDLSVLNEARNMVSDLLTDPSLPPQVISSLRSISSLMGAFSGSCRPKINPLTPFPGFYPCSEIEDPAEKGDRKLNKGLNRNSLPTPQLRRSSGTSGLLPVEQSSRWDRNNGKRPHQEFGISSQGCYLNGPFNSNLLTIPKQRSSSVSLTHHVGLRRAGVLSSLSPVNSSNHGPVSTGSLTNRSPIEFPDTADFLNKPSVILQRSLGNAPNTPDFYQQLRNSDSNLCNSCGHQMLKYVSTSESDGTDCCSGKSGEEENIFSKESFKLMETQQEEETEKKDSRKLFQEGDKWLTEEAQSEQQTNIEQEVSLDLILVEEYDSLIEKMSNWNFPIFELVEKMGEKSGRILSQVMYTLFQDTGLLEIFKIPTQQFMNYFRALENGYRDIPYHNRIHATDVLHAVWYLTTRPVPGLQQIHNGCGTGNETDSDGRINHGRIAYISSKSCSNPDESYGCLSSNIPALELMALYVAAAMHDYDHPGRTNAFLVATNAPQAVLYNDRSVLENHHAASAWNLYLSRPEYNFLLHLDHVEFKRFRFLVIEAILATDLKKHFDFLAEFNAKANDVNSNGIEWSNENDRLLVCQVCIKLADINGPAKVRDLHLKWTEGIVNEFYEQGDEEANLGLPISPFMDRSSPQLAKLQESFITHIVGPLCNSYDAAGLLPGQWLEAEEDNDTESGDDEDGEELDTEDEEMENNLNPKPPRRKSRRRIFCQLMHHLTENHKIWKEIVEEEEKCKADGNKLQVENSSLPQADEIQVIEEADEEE
From the text: as §1, §2, §3, §4, §5

Compound	LXRα reporter activation, replicate values (DMSO ctrl = 1,000) (liver X receptor (LXR)α; 3 µM)	LXRα reporter activation, replicate values (DMSO ctrl = 1,000) (liver X receptor (LXR)α; 10 µM)	EC50 (human PPARδ; HEK293T cells)	inhibition at 10 µM (CDK2)	inhibition at 10 µM (GSK-3A)	inhibition at 10 µM (ZAP70)	inhibition at 10 µM (PHOSPHODIESTERASE 4D2)	inhibition at 10 µM (ABL1)	inhibition at 10 µM [1]	inhibition at 10 µM (MONOAMINE OXIDASE-A)	Mean inhibition (%) (HIV-1 PROTEASE)	inhibition at 10 µM (CYCLO OXYGENASE 2)	inhibition at 10 µM (ACETYLCHOLINESTERASE)	inhibition at 10 µM (GSK-3B)	inhibition at 10 µM (PHOSPHODIESTERASE 3B)	activity on PPARδ (human PPARδ; result in words)
Cc1nnc(-c2ccc(OCCCOc3ccc(CCC(=O)O)c(F)c3)c(F)c2)s1 [Compound 1]	1,029 and 1,028 and 1,248	3,397 and 1,447 and 1,490	240 ± 50 nM	3.6%	39.6%	-0.3%	3.1%	4.4%	-11.6%	13.3%	8.2%	-21.7%	0%	20.2%	1.4%	–
COc1ccc(Oc2ccc3ncn(CCOc4ccc(CCC(=O)O)cc4)c3c2)cc1 [Compound 2]	0,566 and 1,566 and 1,418	1,976 and 2,098 and 2,121	–	45.9%	-8.8%	3.5%	-3.8%	-11%	-44.3%	4.4%	0.2%	-10.4%	2%	-20.3%	-26.7%	no discernible impact
